In brackets after ≈: the same amount, converted by molar mass. Read-outs that look alike come from different tables or passages of the source.
Assays:
[1] = tested on: Pasteurella multocida pm002; test: MIC broth microdilution, P. multocida pm002 (wild type); type: cell-based
[2] = tested on: Mycobacterium tuberculosis H37Rv; test: MIC agar dilution, M. tuberculosis H37Rv; type: cell-based
[3] = tested on: Escherichia Coli MC 4100 AcrAB UPA3r; test: MIC broth microdilution, E. coli MC 4100 AcrAB UPA3r (ΔAcrAB, UPA resistant); type: cell-based; conditions: E. coli AcrAB UPA3^r
[4] = tested on: Mycobacterium tuberculosis TN913; test: MIC agar dilution, M. tuberculosis TN913; type: cell-based
[5] = tested on: Pseudomonas aeruginosa PAM 1323; test: MIC broth microdilution, P. aeruginosa PAM 1323 (medium level UPA resistance); type: cell-based
[6] = tested on: Pseudomonas aeruginosa PAM 1135; test: MIC broth microdilution, P. aeruginosa PAM 1135 (high level UPA resistance); type: cell-based; conditions: P. aeruginosa PAM 1135 UPA1^r
[7] = tested on: Staphylococcus aureus 8325-4; test: MIC broth microdilution, S. aureus 8325-4 (wild type); type: cell-based; conditions: S. aureus 8325-4
[8] = tested on: Escherichia Coli MC 4100 AcrAB; test: MIC broth microdilution, E. coli MC 4100 AcrAB (ΔAcrAB); type: cell-based; conditions: E. coli AcrAB
[9] = tested on: Pseudomonas aeruginosa PAM 1154; test: MIC broth microdilution, P. aeruginosa PAM 1154 (OprM::Hg); type: cell-based; conditions: P. aeruginosa PAM 1154 OprM::Hg
[10] = tested on: Escherichia Coli MC 4100; test: MIC broth microdilution, E. coli MC 4100 (wild type); type: cell-based; conditions: E. coli MC 4100
[11] = tested on: Staphylococcus aureus ATCC 29213; test: MIC broth microdilution, S. aureus ATCC 29213 (wild type); type: cell-based; conditions: S. aureus ATCC 29213
[12] = tested on: Pseudomonas aeruginosa PAM 1020; test: MIC broth microdilution, P. aeruginosa PAM 1020 (wild type); type: cell-based; conditions: P. aeruginosa PAM 1020
[13] = tested on: Mycobacterium smegmatis ATCC 19420; test: MIC broth microdilution, M. smegmatis ATCC 19420; conditions: 72 hours at 35° C., CAMHB
[14] = tested on: Mycobacterium fortuitum ATCC 6841; test: MIC broth microdilution, M. fortuitum ATCC 6841; conditions: 72 hours at 35° C., CAMHB
[15] = agar dilution, Middlebrook 7H10 agar, four weeks at 35° C., 0, 1, 10 and 30 tested

SMILES	MIC (μg/ml) Broth microdilution [1] [µg/mL]	MIC H37RV (SENSITIVE) [2] [µg/mL]	MIC (μg/ml) Broth microdilution [3] [µg/mL]	MIC TN913 (SENSITIVE) [4] [µg/mL]	MIC (μg/ml) Broth microdilution [5] [µg/mL]	MIC (μg/ml) Broth microdilution [6] [µg/mL]	MIC (μg/ml) Broth microdilution [7] [µg/mL]	MIC (μg/ml) Broth microdilution [8] [µg/mL]	MIC (μg/ml) Broth microdilution [9] [µg/mL]	MIC (μg/ml) Broth microdilution [10] [µg/mL]	MIC (μg/ml) Broth microdilution [11] [µg/mL]	MIC (μg/ml) Broth microdilution [12] [µg/mL]	MIC Broth microdilution M. smegmatis ATCC19420 [13] [µg/mL]	MIC Broth microdilution M. fortuitum ATCC 6841 [14] [µg/mL]	MIC H37RV (SENSITIVE) [2, 15] [µg/mL]	MIC TN913 (SENSITIVE) [4, 15] [µg/mL]
CC(C)C[C@H](NC(=O)N[C@@H](Cc1c[nH]c2ccccc12)C(=O)O)C(=O)N[C@H](C(=O)NC[C@H]1C[C@@H](O)[C@H](n2ccc(=O)[nH]c2=O)O1)[C@H](C)N(C)C(=O)CN [Compound 109]	128 (≈ 173 µM)	>30	8 (≈ 10.8 µM)	30 (≈ 40.4 µM)	128 (≈ 173 µM)	>512	>512	<1	<1	128 (≈ 173 µM)	>512	4 (≈ 5.39 µM)	–	–	–	–
CC(N)C(=O)N(C)C(C)C(NC(=O)C(Cc1ccc(I)cc1)NC(=O)NC(Cc1ccc(O)cc1)C(=O)O)C(=O)NCC1CC(O)C(n2ccc(=O)[nH]c2=O)O1 [Compound 134, 1-[5′-[(2S,3S)-N^3-L-Alanyl-N^2-[N-[[(1S)-1-carboxy-4-hydroxyphenethyl]carbamoyl]-L-4-iodophenylalanyl]-N^3-methyl-2,3-diaminobutyramido]-3′,5′-dideoxy-α-L-arabinofuranosyl]uracil]	>512	–	32 (≈ 35.8 µM)	–	>512	>512	512 (≈ 574 µM)	<1	32 (≈ 35.8 µM)	128 (≈ 143 µM)	512 (≈ 574 µM)	256 (≈ 287 µM)	16 (≈ 17.9 µM)	32 (≈ 35.8 µM)	–	–
CC(C(NC(=O)C(Cc1ccccc1)NC(=O)NC(Cc1c[nH]c2ccccc12)C(=O)O)C(=O)NCC1CC(O)C(n2ccc(=O)[nH]c2=O)O1)N(C)C(=O)C(N)Cc1ccccc1 [Compound 156, 1-[5′-[(2S,3S)-N^2-[N-[[(1S)-1-Carboxy-2-indol-3-ylethyl]carbamoyl]-L-phenylalanyl]-N^3-L-phenylalanyl-N^3-methyl-2,3-diaminobutyramido]-3′,5′-dideoxy-α-L-arabinofuranosyl]uracil]	256 (≈ 296 µM)	–	512 (≈ 591 µM)	–	256 (≈ 296 µM)	256 (≈ 296 µM)	>512	4 (≈ 4.62 µM)	32 (≈ 37 µM)	512 (≈ 591 µM)	>512	32 (≈ 37 µM)	16 (≈ 18.5 µM)	256 (≈ 296 µM)	–	–
CC(C)CC(N)C(=O)N(C)C(C)C(NC(=O)C(Cc1ccc(F)cc1)NC(=O)NC(Cc1c[nH]c2ccccc12)C(=O)O)C(=O)NCC1CC(O)C(n2ccc(=O)[nH]c2=O)O1 [Compound 117, 1-[5′-[(2S,3S)-N^2-[N-[[(1S)-1-Carboxy-2-indol-3-ylethyl]carbamoyl]-L-4-fluorophenylalanyl]-N^3-L-leucyl-N^3-methyl-2,3-diaminobutyramido]-3′,5′-dideoxy-α-L-arabinofuranosyl]uracil]	256 (≈ 301 µM)	–	32 (≈ 37.7 µM)	–	>512	>512	>512	<1	64 (≈ 75.3 µM)	>512	>512	64 (≈ 75.3 µM)	8 (≈ 9.41 µM)	64 (≈ 75.3 µM)	–	–
CC(N)C(=O)N(C)C(C)C(NC(=O)C(CC1CCCCC1)NC(=O)NC(Cc1c[nH]c2ccccc12)C(=O)O)C(=O)NCC1CC(O)C(n2ccc(=O)[nH]c2=O)O1 [Compound 136, 1-[5-(2S 3S)-N^3-L-Alanyl-N^2-[N-[[(1S)-1-carboxy-2-indol-3-ylethyl]carbamoyl]-L-cyclohexylalanyl]-N^3-methyl-2,3-diaminobutyramido]-3′,5′-dideoxy-α-L-arabinofuranosyl]uracil]	>512	–	64 (≈ 80.4 µM)	–	>512	>512	>512	4 (≈ 5.03 µM)	64 (≈ 80.4 µM)	>512	>512	128 (≈ 161 µM)	8 (≈ 10.1 µM)	128 (≈ 161 µM)	–	–
C[C@@H]([C@H](NC(=O)[C@H](Cc1ccccc1)NC(=O)N[C@@H](Cc1c[nH]c2ccccc12)C(=O)O)C(=O)NC[C@H]1C[C@@H](O)[C@H](n2ccc(=O)[nH]c2=O)O1)N(C)C(=O)CN [Compound 128, 1-[5′-[(2S,3S)-N^2-[N-[[(1S)-1-Carboxy-2-indol-3-ylethyl]carbamoyl]-L-phenylalanyl]-N^3-glycyl-N^3-methyl-2,3-diaminobutyramido]-3′,5′-dideoxy-α-L-arabinofuranosyl]uracil]	64 (≈ 82.5 µM)	–	16 (≈ 20.6 µM)	–	>512	>512	256 (≈ 330 µM)	2 (≈ 2.58 µM)	<1	256 (≈ 330 µM)	>512	8 (≈ 10.3 µM)	4 (≈ 5.16 µM)	64 (≈ 82.5 µM)	–	–
C[C@H](NC(=O)N[C@@H](Cc1c[nH]c2ccccc12)C(=O)O)C(=O)N[C@H](C(=O)N/C=C1/C[C@@H](O)[C@H](n2ccc(=O)[nH]c2=O)O1)[C@H](C)N(C)C(=O)[C@@H](N)Cc1cccc(O)c1 [Pacidamycin 4, reference compound]	–	–	–	–	–	–	–	–	–	–	–	–	–	–	>30	>30
CC(N)C(=O)N(C)C(C)C(NC(=O)C(Cc1ccc(Cl)cc1)NC(=O)NC(Cc1ccc(O)cc1)C(=O)O)C(=O)NCC1CC(O)C(n2ccc(=O)[nH]c2=O)O1 [Compound 135, 1-[5′-[(2S,3S)-N^3-L-Alanyl-N^2-[N-[[(1S)-1-carboxy-4-hydroxyphenethyl]carbamoyl]-L-4-chlorophenylalanyl]-N^3-methyl-2,3-diaminobutyramido]-3′,5′-dideoxy-α-L-arabinofuranosyl]uracil]	512 (≈ 639 µM)	–	2 (≈ 2.5 µM)	–	>512	>512	>512	<1	16 (≈ 20 µM)	8 (≈ 9.98 µM)	512 (≈ 639 µM)	64 (≈ 79.9 µM)	16 (≈ 20 µM)	64 (≈ 79.9 µM)	–	–

Reference: patent US6482921B1, “Uridyl peptide antibiotic (UPA) derivatives, their synthesis and use” (Essential Therapeutics, Inc., priority 1999, dated 2002)
